Results from patent publication US20230141603A1, “BENZODIAZEPINE DERIVATIVES AS GABA A GAMMA1 PAM” (Hoffmann-La Roche Inc., priority 2021, published 2023).
pKi: −log10 of the molar value.

Target: T1, h-GABAA α5β2γ1 (Homo sapiens, UniProt P31644+Q8N1C3)
T1 construct: expressed in transfected cells; host or cells: HEK293F cells (ThermoFisher R79007), membranes
T1 sequence (P31644 32-462): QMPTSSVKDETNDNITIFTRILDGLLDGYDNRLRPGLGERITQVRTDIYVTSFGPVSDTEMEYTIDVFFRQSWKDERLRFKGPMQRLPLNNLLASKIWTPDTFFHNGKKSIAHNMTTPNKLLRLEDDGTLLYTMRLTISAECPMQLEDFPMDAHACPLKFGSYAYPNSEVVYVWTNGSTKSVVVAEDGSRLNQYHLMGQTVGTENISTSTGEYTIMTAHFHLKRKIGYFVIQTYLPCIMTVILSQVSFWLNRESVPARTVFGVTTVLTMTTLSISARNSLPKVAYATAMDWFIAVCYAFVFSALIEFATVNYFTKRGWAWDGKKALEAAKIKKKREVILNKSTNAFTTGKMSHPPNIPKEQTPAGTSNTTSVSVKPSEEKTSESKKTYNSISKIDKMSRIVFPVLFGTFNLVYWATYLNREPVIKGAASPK
T1 sequence (P47870 25-512 partner limits assumed): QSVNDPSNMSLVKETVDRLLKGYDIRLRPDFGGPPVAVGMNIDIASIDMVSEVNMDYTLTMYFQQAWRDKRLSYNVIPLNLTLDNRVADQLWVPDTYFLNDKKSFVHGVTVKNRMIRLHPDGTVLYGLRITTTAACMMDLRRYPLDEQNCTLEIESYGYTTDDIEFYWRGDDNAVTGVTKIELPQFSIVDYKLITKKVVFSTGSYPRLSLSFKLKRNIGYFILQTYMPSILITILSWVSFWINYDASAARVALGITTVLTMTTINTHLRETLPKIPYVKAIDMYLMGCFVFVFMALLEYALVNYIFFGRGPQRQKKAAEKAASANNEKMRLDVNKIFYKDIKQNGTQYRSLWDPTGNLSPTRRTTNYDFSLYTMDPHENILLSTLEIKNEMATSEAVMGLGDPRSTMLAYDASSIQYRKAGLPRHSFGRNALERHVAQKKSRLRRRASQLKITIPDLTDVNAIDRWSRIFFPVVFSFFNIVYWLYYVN
T1 sequence (Q8N1C3 36-465): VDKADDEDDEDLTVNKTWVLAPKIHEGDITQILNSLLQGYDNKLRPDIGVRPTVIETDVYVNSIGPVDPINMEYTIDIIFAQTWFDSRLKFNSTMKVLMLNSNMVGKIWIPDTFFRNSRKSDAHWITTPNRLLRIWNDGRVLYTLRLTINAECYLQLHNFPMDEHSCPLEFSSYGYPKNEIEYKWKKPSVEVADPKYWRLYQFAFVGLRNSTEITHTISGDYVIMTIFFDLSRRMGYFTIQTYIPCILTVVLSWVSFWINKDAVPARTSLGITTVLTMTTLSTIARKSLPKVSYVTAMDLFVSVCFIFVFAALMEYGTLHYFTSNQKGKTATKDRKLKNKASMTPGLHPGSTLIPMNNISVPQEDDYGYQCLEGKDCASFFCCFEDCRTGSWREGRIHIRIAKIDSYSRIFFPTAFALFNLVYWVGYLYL
Experiment: Radioligand binding assay, [3H]RO7239181 competition, HEK293F membranes
Method: The affinity of compounds at GABAA γ1 subunit-containing receptors was measured by competition for [^3H]RO7239181 (67.3 Ci/mmol; Roche) binding to membranes from HEK293F cells (ThermoFisher R79007) expressing human (transiently transfected) receptors of composition […], α2β2γ1, α1β2γ1. For better protein expression of the α2 subunit-containing receptors, the 28 amino acid long signal peptide (Met1 to Ala28) of the human GABAA α2 subunit was substituted by the 31 amino acid long signal peptide (Met1 to Ser31) of human GABAA α5 subunit.
Harvested pellets from HEK293F cells expressing the different GABAA receptor subtypes were resuspended in Mannitol Buffer pH 7.2-7.4 (Mannitol 0.29M, Triethylamine 10 mM, Acetic acid 10 mM, EDTA 1 mM plus protease inhibitors (20 tablets Complete, Roche Diagnostics Cat. No. 05 056 489 001 per liter)), washed two times and then resuspended at 1:10 to 1:15 dilution in the same buffer. Cell disruption was performed by stirring the suspension in a Parr vessel #4637 at 435 psi for 15 minutes, and then the suspensions were centrifuged at 1000×g for 15 minutes at 4° C. (Beckman Avanti J-HC; rotor JS-4.2). The supernatant (S1) was transferred in a 21 Schott flask and the pellet (P1) was resuspended with Mannitol Buffer up to 175 ml. The resuspended pellet was transferred into a 250 ml Corning centrifugal beaker and centrifuged at 1500×g for 10 minutes at 4° C. (Beckman Avanti J-HC; rotor JS-4.2). The supernatant (S1) was then transferred in the 21 Schott flask and the pellet was discarded. The supernatants (S1) were centrifuged in 500 ml Beckman polypropylene centrifugal beaker at 15′000×g for 30 minutes at 4° C. (Beckman Avanti J-20 XP; rotor JLA-10.500). The pellet (P2) was resuspended with Mannitol Buffer 1:1 and frozen at −80° C. The supernatant (S2) was centrifuged in 100 ml Beckman polypropylene centrifugal tubes at 48000×g for 50 minutes at 4° C. (Beckman Avanti J-20 XP; rotor JA-18). The supernatant (S3) was discarded and the pellet (P3) was resuspended with 1:1 Mannitol Buffer. The P2 and P3 protein concentration was determined with the BIORAD Standard assay method with bovine serum albumin as standard and measured on the NANO-Drop 1000. The membrane suspension was aliquots (500 μl per tube) and stored at −80° C. until required. Membrane homogenates were resuspended and polytronised (Polytron PT1200E Kinematica AG) in Potassium Phosphate 10 mM, KCl 100 mM binding buffer at pH 7.4 to a final assay concentration determined with a previous experiment.
Radioligand binding assays were carried out in a volume of 200 μL (96-well plates) which contained 100 μL of cell membranes, [^3H]RO7239181 at a concentration of 1.5 nM (α5β2γ1) or 20-30 nM (α1β2γ1, α2β2γ1) and the test compound in the range of [0.3-10000]×10^−9 M. Nonspecific binding was defined by 10×10^−6 (α5β2γ1) and 30×10^−6 M RO7235136 and typically represented less than 5% (α5β2γ1) and less than 20% (α1β2γ1, α2β2γ1) of the total binding. Assays were incubated to equilibrium for 1 hour at 4° C. and then, membranes were filtered onto unifilter (96-well white microplate with bonded GF/C filters preincubated 20-50 minutes in 0.3% Polyethylenimine) with a Filtermate 196 harvester (Packard BioScience) and washed 4 times with cold Potassium Phosphate 10 mM pH 7.4, KCl 100 mM binding buffer. After drying, filter-retained radioactivity was detected by liquid scintillation counting. Ki values were calculated using Excel-Fit (Microsoft) and are the means of two determinations.

Row | SMILES | pKi
1 | Fc1cccc(F)c1C1=NCc2nnc(-c3cccnn3)n2-c2ccc(I)c(Cl)c21 [Example 39, 7-chloro-6-(2,6-difluorophenyl)-8-iodo-1-pyridazin-3-yl-4H-[1,2,4]triazolo[4,3-a][1,4]benzodiazepine] | 9.10
2 | Fc1cccnc1C1=NCc2nnc(-c3cccnn3)n2-c2ccc(Cl)c(Cl)c21 [Example 54, 7,8-dichloro-6-(3-fluoro-2-pyridyl)-1-pyridazin-3-yl-4H-[1,2,4]triazolo[4,3-a][1,4]benzodiazepine] | 8.42
3 | O=c1[nH]nc2n1-c1ccc(Br)c(Cl)c1C(c1c(F)cccc1F)=NC2 [Example 13, 8-bromo-7-chloro-6-(2,6-difluorophenyl)-2,4-dihydro-[1,2,4]triazolo[4,3-a][1,4]benzodiazepin-1-one] | 8.96
4 | Cc1nnc2n1-c1ccc(Cl)c(Cl)c1C(c1ccccc1F)=NC2 [Example 4, 7,8-dichloro-6-(2-fluorophenyl)-1-methyl-4H-[1,2,4]triazolo[4,3-a][1,4]benzodiazepine] | 8.27
5 | Fc1cccc(F)c1C1=NCc2nnc(-c3cccnn3)n2-c2ccc(Br)c(Cl)c21 [Example 104, 8-bromo-7-chloro-6-(2,6-difluorophenyl)-1-pyridazin-3-yl-4H-[1,2,4]triazolo[4,3-a][1,4]benzodiazepine] | 9.22
6 | Cc1nnc2n1-c1ccc(Br)c(Cl)c1C(c1c(F)cccc1Cl)=NC2 [Example 50, 8-bromo-7-chloro-6-(2-chloro-6-fluoro-phenyl)-1-methyl-4H-[1,2,4]triazolo[4,3-a][1,4]benzodiazepine] | 9.00
7 | Cc1nnc2n1-c1ccc(Br)c(Cl)c1C(c1c(F)cccc1F)=NC2 [Example 1, 8-bromo-7-chloro-6-(2,6-difluorophenyl)-1-methyl-4H-[1,2,4]triazolo[4,3-a][1,4]benzodiazepine] | 8.96
8 | Fc1ccccc1C1=NCc2nnc(C3CC3)n2-c2ccc(Br)c(Cl)c21 [Example 2, 8-bromo-7-chloro-1-cyclopropyl-6-(2-fluorophenyl)-4H-[1,2,4]triazolo[4,3-a][1,4]benzodiazepine] | 8.24
9 | O=c1[nH]nc2n1-c1ccc(Br)c(Cl)c1C(c1ccccc1F)=NC2 [Example 26, 8-bromo-7-chloro-6-(2-fluorophenyl)-2,4-dihydro-[1,2,4]triazolo[4,3-a][1,4]benzodiazepin-1-one] | 8.64
10 | Clc1cccnc1C1=NCc2nnc(-c3ccncn3)n2-c2ccc(Br)c(Cl)c21 [Example 44, 8-bromo-7-chloro-6-(3-chloro-2-pyridyl)-1-pyrimidin-4-yl-4H-[1,2,4]triazolo[4,3-a][1,4]benzodiazepine] | 8.85
11 | Cc1ccc2c(c1Cl)C(c1c(F)cccc1F)=NCc1nnc(-c3cccnn3)n1-2 [Example 48, 7-chloro-6-(2,6-difluorophenyl)-8-methyl-1-pyridazin-3-yl-4H-[1,2,4]triazolo[4,3-a][1,4]benzodiazepine] | 8.96
12 | Cc1ccc2c(c1Cl)C(c1c(F)cccc1F)=NCc1nncn1-2 [Example 17, 7-chloro-6-(2,6-difluorophenyl)-8-methyl-4H-[1,2,4]triazolo[4,3-a][1,4]benzodiazepine] | 8.89
13 | Fc1cccnc1C1=NCc2nnc(C3CC3)n2-c2ccc(Cl)c(Cl)c21 [Example 65, 7,8-dichloro-1-cyclopropyl-6-(3-fluoro-2-pyridyl)-4H-[1,2,4]triazolo[4,3-a][1,4]benzodiazepine] | 8.11
14 | Fc1cccc(F)c1C1=NCc2nncn2-c2ccc(C(F)(F)F)c(Cl)c21 [Example 37, 7-chloro-6-(2,6-difluorophenyl)-8-(trifluoromethyl)-4H-[1,2,4]triazolo[4,3-a][1,4]benzodiazepine] | 8.68
15 | Fc1ccccc1C1=NCc2nnc(-c3ccncn3)n2-c2ccc(Cl)c(Cl)c21 [Example 18, 7,8-dichloro-6-(2-fluorophenyl)-1-pyrimidin-4-yl-4H-[1,2,4]triazolo[4,3-a][1,4]benzodiazepine] | 8.59
16 | Cc1nnc2n1-c1ccc(C(F)(F)F)c(Cl)c1C(c1ncccc1F)=NC2 [Example 78, 7-chloro-6-(3-fluoro-2-pyridyl)-1-methyl-8-(trifluoromethyl)-4H-[1,2,4]triazolo[4,3-a][1,4]benzodiazepine] | 8.11
17 | COc1nnc2n1-c1ccc(Cl)c(Cl)c1C(c1c(F)cccc1F)=NC2 [Example 90, 7,8-dichloro-6-(2,6-difluorophenyl)-1-methoxy-4H-[1,2,4]triazolo[4,3-a][1,4]benzodiazepine] | 9.00
18 | Cc1nnc2n1-c1ccc(C(F)(F)F)c(Cl)c1C(c1c(F)cccc1F)=NC2 [Example 40, 7-chloro-6-(2,6-difluorophenyl)-1-methyl-8-(trifluoromethyl)-4H-[1,2,4]triazolo[4,3-a][1,4]benzodiazepine] | 8.72
19 | Cc1nnc2n1-c1ccc(Cl)c(Cl)c1C(c1c(F)cccc1F)=NC2 [Example 5, 7,8-dichloro-6-(2,6-difluorophenyl)-1-methyl-4H-[1,2,4]triazolo[4,3-a][1,4]benzodiazepine] | 9.10
20 | Cn1cc(-c2nnc3n2-c2ccc(Cl)c(Cl)c2C(c2ncccc2F)=NC3)cn1 [Example 58, 7,8-dichloro-6-(3-fluoro-2-pyridyl)-1-(1-methylpyrazol-4-yl)-4H-[1,2,4]triazolo[4,3-a][1,4]benzodiazepine] | 8.44
21 | Fc1cccc(F)c1C1=NCc2nnc(-c3ccncn3)n2-c2ccc(Cl)c(Cl)c21 [Example 12, 7,8-dichloro-6-(2,6-difluorophenyl)-1-pyrimidin-4-yl-4H-[1,2,4]triazolo[4,3-a][1,4]benzodiazepine] | 8.64
